In US11129801B2 (SigmaThera SAS, priority 2016, dated 2021):

B1: BDNF: Brain-derived neurotrophic factor, used as a reference compound (protein, UniProt P23560 19-247, looked up)
Neurotrophic factor BDNF …: APMKEANIRGQGGLAYPGVRTHGTLESVNGPKAGSRGLTSLADTFEHVIEELLDEDQKVRPNEENNKDADLYTSRVMLSSQVPLEPPLLFLLEEYKNYLDAANMSMRVRRHSDPARRGELSVCDSISEWVTAADKKTAVDMSGGTVTVLEKVPVSKGQLKQYFYETKCNPMGYTKEGCRGIDKRHWNSQCRTTQSYVRALTMDSKKRIGWRFIRIDTSCVCTLTIKRGR

Tested on: rat motor neurons (Islet 1/2 positive neurons)
Assay: Survival of primary motor neurons injured by glutamate
Assay type: cell-based
Details: glutamate 40 μM, 20 min
Protocol: Rat motor neurons were cultured as described (Camu et al. (1994) Journal of the neurological sciences 124 Suppl: 73-74). Briefly, pregnant female rats of 14 days gestation were killed by cervical dislocation (Rats Wistar; Janvier Lab) and the foetuses were removed from the uterus. The spinal cord were removed and placed in ice-cold PBS. Tissue segments were spun down, incubated in 0.025% (w/v) of trypsin-EDTA (Panbiotech, Ref: P10-023100) for 10 min at 37° C. Fragments were transferred in 1 mL of complete Leibovitz medium containing BSA (0.4%, Dustcher, Ref: P06-1391100) and DNasel grade II (0.1 mg/ml, Panbiotech, ref: P60-37780100). Cells were then dissociated by several rounds of trituration, centrifuged for 5 min at 470 g on a 4% BSA cushion and re-suspended in 2 mL of supplemented L15 medium. Motor neurons were counted in a Neubauer cytometer using the trypan blue exclusion test. Cells were cultured at a density of 1.5×10^4 cells/well of a 96 wells plate on astrocyte monolayer in Neurobasal (Invitrogen, ref: 21103) containing 1% of B27 (Invitrogen, ref: 17504), 2 mM L-Glutamine (Panbiotech, ref: P04-80100), 1% of PS solution, […] 2-mercaptoethanol (Invitrogen, ref: 31350-010), 2% Horse serum (Invitrogen, Ref: 16050-122), 1 ng/ml of Brain-derived neurotrophic factor (BDNF, PanBiotech, Ref: CB-1115002) and 1 ng/ml of Glial derived neurotrophic factor (GDNF, Dustcher, Ref: CB-1116001) at 37° C. in a humidified air (95%)/CO2 (5%) atmosphere.
Briefly, after 10 days of culture, medium was removed and 100 μL of fresh medium (supplemented Neurobasal without neurotrophic factor) without or with test compound was added 1 h before glutamate intoxication. Then, Glutamate at 40 μM in absence or presence of test compound will be added in the culture medium and incubated 20 min. The cells were rinsed with incubation solution (3 wash-outs) and let in the neurobasal medium containing compounds or control medium for 24 h.
[…]_Control medium stimulated with vehicle medium […]
The data were expressed as mean±s.e.m (of 6 data per condition, 1 culture). […]

Row | Molecule | protective effect on motor neuron survival (0.1 μM, 0.3 μM, 1 μM, 3 μM and 10 μM) | Islet 1/2 positive neurons (10 μM) | Islet 1/2 positive neurons (50 ng/mL)
1 | CCC(C/C=C/c1ccccc1)(c1ccccc1)N(C)CC1CC1 (single isomer, unassigned; (+)) [igmesine, (+)-(E)-N-(cyclopropylmethyl)-N-methyl-3,6-diphenylhex-5-en-3-amine] | significant protective effect | 126 % of the control | –
2 | B1 | – | – | 96.43 % of the control
